{
  "source": "ChEMBL document CHEMBL1136837",
  "about": "“Unified QSAR approach to antimicrobials. 4. Multi-target QSAR modeling and comparative multi-distance study of the giant components of antiviral drug-drug complex networks” (Bioorg Med Chem, 2009)",
  "note": "Starred links: 1 amine or outer side, 2 acyl side, 3 side chain; linkers in the order of their positions; H or OH if unused. Non-standard residues stand in square brackets, D forms with d. Residues, ends and D or L forms follow the SMILES beside them. *: point of attachment. NH(1S-phenylpropyl) = CC[C@H](N*)c1ccccc1; NH(1R-phenylethyl) = C[C@@H](N*)c1ccccc1; Dip = N[C@H](C(=O)O)C(c1ccccc1)c1ccccc1; CH2(1-naphthyl) = c1ccc2c(C*)cccc2c1; Hyp = O=C(O)[C@@H]1C[C@@H](O)CN1; azaNva = CCCN(N[*:1])C(=O)[*:2]; Cha = N[C@@H](CC1CCCCC1)C(=O)O; X2 = C[C@H](N*)c1cccc2ccccc12; Chg = N[C@H](C(=O)O)C1CCCCC1; NH(CH2)3Ph = c1ccc(CCCN*)cc1; NHPhenethyl = c1ccc(CCN*)cc1; X9 = C[C@H](N*)c1nnn[nH]1; X6 = c1ccc2c(c1)CC(N*)C2; Ac3c = NC1(C(=O)O)CC1; NHBn = c1ccc(CN*)cc1; X4 = C1CCC(CCN*)CC1; Bn = c1ccc(C*)cc1",
  "data": [
    {"system": "Hepatitis C virus", "assay": "(§1) Antiviral activity against Hepatitis C virus", "format": "functional, organism-based, Hepacivirus hominis", "conditions": "not given", "units": {"IC50": "nM"}, "values": [
      {"smiles": "O=C(O)[C@H](Cc1ccccc1)N(Cc1ccc(-c2nccs2)cc1)C(=O)c1ccc(Cl)cc1Cl", "note": "(stereo in doubt; form 1)", "IC50": 620}
    ]},
    {"system": "Hepatitis C virus", "assay": "as §1", "format": "functional, organism-based, Hepacivirus hominis", "conditions": "Hepatitis C virus", "units": {"IC50": "nM"}, "values": [
      {"smiles": "COc1ccc2c(O[C@@H]3C[C@H]4C(=O)N[C@]5(C(=O)O)C[C@H]5/C=C\\CCCCC[C@H](NC(=O)OC(C)(C)C)C(=O)N4C3)cc(-n3ccnc3)nc2c1", "IC50": 4.7},
      {"smiles": "COc1ccc2c(O[C@@H]3C[C@H]4C(=O)N[C@]5(C(=O)O)C[C@H]5/C=C\\CCCCC[C@H](NC(=O)OC5CCCC5)C(=O)N4C3)cc(-n3cccc3)nc2c1", "IC50": 3.6},
      {"smiles": "COc1ccc2c(O[C@@H]3C[C@H]4C(=O)N[C@]5(C(=O)O)C[C@H]5/C=C\\CCCCC[C@H](NC(=O)OC(C)(C)C)C(=O)N4C3)cc(-c3csc(N)n3)nc2c1", "IC50": 5.5},
      {"smiles": "O=C(CC(=O)C(=O)O)Cc1ccncc1", "IC50": 50000},
      {"smiles": "CCCC1(CC(=O)OCC)OCCc2c1[nH]c1c(C)ccc(C#N)c21", "note": "(stereo unspecified)", "IC50": 30000},
      {"smiles": "CC(=O)N[C@H](C(=O)N[C@H](C(=O)N1C[C@H](OCc2cccc3ccccc23)C[C@H]1C(=O)NC1(C(=O)O)CC1)C(C)C)C1CCCCC1", "note": "(Ac-[Chg]V[Hyp](CH2(1-naphthyl))[Ac3c]-OH)", "IC50": 4000},
      {"smiles": "C[C@@]1(O)[C@H](O)[C@@H](CO)O[C@H]1n1ccc2c(N)nc(F)nc21", "IC50": 100000},
      {"smiles": "CC(=O)N[C@@H](CC(=O)O)C(=O)N[C@@H](CCC(=O)O)C(=O)N[C@H](C(=O)N[C@@H](CCC(=O)O)C(=O)N[C@@H](CC1CCCCC1)C(=O)N[C@@H](CS)C(=O)NCCCc1ccccc1)C(c1ccccc1)c1ccccc1", "note": "(Ac-DE[Dip]E[Cha]C-{NH(CH2)3Ph})", "IC50": 210},
      {"smiles": "CCc1ccc(Cl)c2[nH]c3c(c12)CCOC3(CC)CC(=O)O", "note": "(stereo unspecified)", "IC50": 30000},
      {"smiles": "N#Cc1ccc(CN(C(=O)c2ccc(Cl)cc2Cl)[C@@H](Cc2ccccc2)C(=O)O)cc1", "IC50": 8000},
      {"smiles": "N#Cc1c(Cl)cc(Cl)cc1COc1cccc(C(=O)/C=C(\\O)C(=O)O)c1", "IC50": 45},
      {"smiles": "COc1ccc2c(O[C@@H]3C[C@H]4C(=O)N[C@]5(C(=O)O)C[C@H]5/C=C\\CCCCC[C@H](NC(=O)OC5CCCC5)C(=O)N4C3)cc(-n3ccc(C)n3)nc2c1", "IC50": 2.2},
      {"smiles": "COc1ccc2c(O[C@@H]3C[C@H]4C(=O)N[C@]5(C(=O)O)C[C@H]5/C=C\\CCCCC[C@H](NC(=O)OC(C)(C)C)C(=O)N4C3)cc(-n3cnc(C)c3)nc2c1", "IC50": 14},
      {"smiles": "O=C(O)[C@H](Cc1ccccc1)N(Cc1cccnc1)C(=O)c1ccc(Cl)cc1Cl", "IC50": 11000},
      {"smiles": "CCNc1nc(-c2cc(O[C@@H]3C[C@H]4C(=O)N[C@]5(C(=O)O)C[C@H]5/C=C\\CCCCC[C@H](NC(=O)OC5CCCC5)C(=O)N4C3)c3ccc(OC)cc3n2)cs1", "IC50": 2.9},
      {"smiles": "COc1ccc2c(O[C@@H]3C[C@H]4C(=O)N[C@]5(C(=O)O)C[C@H]5/C=C\\CCCCC[C@H](NC(=O)OC5CCCC5)C(=O)N4C3)cc(-c3csc(N)n3)nc2c1", "IC50": 3.5},
      {"smiles": "N#CCCCOc1ccccc1C(=O)CC(=O)C(=O)O", "IC50": 350},
      {"smiles": "CCCC1(CC(=O)O)OCCc2c1[nH]c1c(F)ccc(C#N)c21", "note": "(single isomer, unassigned)", "IC50": 5200},
      {"smiles": "COc1ccc2c(O[C@@H]3C[C@H]4C(=O)N[C@]5(C(=O)O)C[C@H]5/C=C\\CCCCC[C@H](NC(=O)N[C@H](C)C(C)(C)C)C(=O)N4C3)cc(-c3csc(NC(C)=O)n3)nc2c1", "IC50": 1.4},
      {"smiles": "CCCCOc1ccccc1C(=O)CC(=O)C(=O)O", "IC50": 10000},
      {"smiles": "O=C(O)[C@H](Cc1ccccc1)N(Cc1cccc([N+](=O)[O-])c1)C(=O)c1ccc(Cl)cc1Cl", "IC50": 700},
      {"smiles": "CCCN(NC(=O)[C@@H]1C[C@@H](OCc2ccccc2)CN1C(=O)[C@@H](NC(=O)[C@@H](NC(=O)[C@@H](CCC(=O)O)NC(=O)[C@H](CC(=O)O)NC(C)=O)[C@@H](C)CC)C(C)C)C(=O)N[C@@H](C)c1cccc2ccccc12", "note": "(Ac-D[dE]IV[Hyp](Bn)[azaNva]-X2)", "IC50": 490},
      {"smiles": "CC(=O)N[C@@H](CC(=O)O)C(=O)N[C@@H](CCC(=O)O)C(=O)N[C@H](C(=O)N[C@@H](CCC(=O)O)C(=O)N[C@@H](CC1CCCCC1)C(=O)N[C@@H](CS)C(=O)NCCc1ccccc1)C(c1ccccc1)c1ccccc1", "note": "(Ac-DE[Dip]E[Cha]C-NHPhenethyl)", "IC50": 7},
      {"smiles": "CCCN(NC(=O)[C@@H]1C[C@@H](OCc2ccccc2)CN1C(=O)[C@@H](NC(=O)[C@@H](NC(=O)[C@@H](CCC(=O)O)NC(=O)[C@H](CC(=O)O)NC(C)=O)[C@@H](C)CC)C(C)C)C(=O)N[C@@H](C)c1nnn[nH]1", "note": "(Ac-D[dE]IV[Hyp](Bn)[azaNva]-X9)", "IC50": 860},
      {"smiles": "CC(=O)N[C@@H](CC(=O)O)C(=O)N[C@@H](CCC(=O)O)C(=O)N[C@H](C(=O)N[C@@H](CCC(=O)O)C(=O)N[C@@H](CC1CCCCC1)C(=O)N[C@@H](CS)C(=O)NC1Cc2ccccc2C1)C(c1ccccc1)c1ccccc1", "note": "(Ac-DE[Dip]E[Cha]C-X6)", "IC50": 1700},
      {"smiles": "CC(C)COC(=O)N[C@@H](CCC(=O)O)C(=O)N[C@@H](CC(C)C)C(=O)N[C@@H](CS)C(=O)NCCc1ccc(C(=O)O)cc1", "IC50": 2000},
      {"smiles": "CCC[C@]1(CC(=O)O)OCCc2c1[nH]c1c(C)ccc(C#N)c21", "IC50": 330},
      {"smiles": "CC(=O)N[C@@H](CC(=O)O)C(=O)N[C@@H](CCC(=O)O)C(=O)N[C@H](C(=O)N[C@@H](CCC(=O)O)C(=O)N[C@@H](CC1CCCCC1)C(=O)N[C@@H](CS)C(=O)NCc1ccccc1)C(c1ccccc1)c1ccccc1", "note": "(Ac-DE[Dip]E[Cha]C-NHBn)", "IC50": 250},
      {"smiles": "CC(=O)N[C@H](C(=O)N[C@H](C(=O)N1C[C@H](OCc2cccc3ccccc23)C[C@H]1C(=O)N[C@@]1(C(=O)O)C[C@@H]1C(C)C)C(C)C)C1CCCCC1", "IC50": 640000},
      {"smiles": "CCCC1(CC(=O)O)OCCc2c1[nH]c1c(C)ccc(C#N)c21", "note": "(stereo unspecified)", "IC50": 570},
      {"smiles": "CCc1ccc(C(=O)CC(=O)C(=O)O)cc1", "IC50": 47000},
      {"smiles": "CCCN(NC(=O)[C@@H]1C[C@@H](OCc2ccccc2)CN1C(=O)[C@@H](NC(=O)[C@@H](NC(=O)[C@@H](CCC(=O)O)NC(=O)[C@H](CC(=O)O)NC(C)=O)[C@@H](C)CC)C(C)C)C(=O)N[C@H](C)c1ccccc1", "note": "(Ac-D[dE]IV[Hyp](Bn)[azaNva]-{NH(1R-phenylethyl)})", "IC50": 4300},
      {"smiles": "CC(=O)N[C@H](C(=O)N[C@H](C(=O)N1C[C@H](Oc2cccc(Br)c2)C[C@H]1C(=O)NC1(C(=O)O)CC1)C(C)C)C1CCCCC1", "IC50": 52000},
      {"smiles": "CC(=O)N[C@@H](CC(=O)O)C(=O)N[C@@H](CCC(=O)O)C(=O)N[C@H](C(=O)N[C@@H](CCC(=O)O)C(=O)N[C@@H](CC1CCCCC1)C(=O)N[C@@H](CS)C(=O)NCCC1CCCCC1)C(c1ccccc1)c1ccccc1", "note": "(Ac-DE[Dip]E[Cha]C-X4)", "IC50": 1540},
      {"smiles": "COc1ccc2c(O[C@@H]3C[C@H]4C(=O)N[C@]5(C(=O)O)C[C@H]5/C=C\\CCCCC[C@H](NC(=O)OC(C)(C)C)C(=O)N4C3)cc(-c3csc(NC(C)=O)n3)nc2c1", "IC50": 4.8},
      {"smiles": "CCCN(NC(=O)[C@@H]1C[C@@H](OCc2ccccc2)CN1C(=O)[C@@H](NC(=O)[C@@H](NC(=O)[C@@H](CCC(=O)O)NC(=O)[C@H](CC(=O)O)NC(C)=O)[C@@H](C)CC)C(C)C)C(=O)N[C@@H](CC)c1ccccc1", "note": "(Ac-D[dE]IV[Hyp](Bn)[azaNva]-{NH(1S-phenylpropyl)})", "IC50": 440},
      {"smiles": "CCC[C@@]1(CC(=O)O)OCCc2c1[nH]c1c(C)ccc(C#N)c21", "IC50": 2400},
      {"smiles": "N#Cc1ccccc1CN(C(=O)c1ccc(Cl)cc1Cl)[C@@H](Cc1ccccc1)C(=O)O", "IC50": 6000},
      {"smiles": "COc1ccc2c(O[C@@H]3C[C@H]4C(=O)N[C@]5(C(=O)O)C[C@H]5/C=C\\CCCCC[C@H](NC(=O)OC(C)(C)C)C(=O)N4C3)cc(-c3nnc(C)o3)nc2c1", "IC50": 12},
      {"smiles": "O=C(O)[C@H](Cc1ccccc1)N(Cc1cccc(Br)c1)C(=O)c1ccc(Cl)cc1Cl", "IC50": 3500}
    ]}
  ]
}
